We go through 94 compounds from PubChem BioAssay AID1259371 (The Scripps Research Institute Molecular Screening Center, 2018).

Active and inactive are the calls of the source. No rule for the calls is given here. Where only a bound is given, the exact number is not on record here.

This assay deals with Microphthalmia-associated transcription factor (Homo sapiens) (UniProt O75030). In words: compounds blocking human MITF signal – biochemical, AlphaScreen, dose response (AID 1259371). The following applies: AlphaScreen biochemical MITF assay, signal inhibition. A general note: Alpha assays give light when donor and acceptor beads are brought close together.
Chain of Microphthalmia-associated transcription factor (Homo sapiens) (O75030 whole entry, looked up): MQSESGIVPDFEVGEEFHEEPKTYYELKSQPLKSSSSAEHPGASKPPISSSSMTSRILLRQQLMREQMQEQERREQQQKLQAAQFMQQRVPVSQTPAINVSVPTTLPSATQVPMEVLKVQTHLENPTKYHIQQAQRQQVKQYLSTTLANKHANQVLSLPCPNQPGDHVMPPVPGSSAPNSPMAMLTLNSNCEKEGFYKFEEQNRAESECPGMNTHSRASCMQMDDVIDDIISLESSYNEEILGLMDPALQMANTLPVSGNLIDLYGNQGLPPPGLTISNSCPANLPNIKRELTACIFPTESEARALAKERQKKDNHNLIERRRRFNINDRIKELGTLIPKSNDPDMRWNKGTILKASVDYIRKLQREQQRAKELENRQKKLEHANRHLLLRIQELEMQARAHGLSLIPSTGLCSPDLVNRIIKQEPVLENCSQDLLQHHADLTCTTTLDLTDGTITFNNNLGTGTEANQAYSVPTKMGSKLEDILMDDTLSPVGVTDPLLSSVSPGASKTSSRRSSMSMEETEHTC
`Cc1nnc(CNC(=O)c2ccc(-n3cccc3)cc2)o1`: the IC50 entry was “inactive”. As for `O=C(O)c1cc(C(=O)O)cc(-c2ccc(/C=N\n3cnnc3)o2)c1`, the IC50 entry was “inactive”. Next, `O=C(/C=C/c1ccco1)NCc1cccc(CNC(=O)/C=C/c2ccco2)c1`: 115 nM. To `CN1CC[C@H](Oc2cc(-c3cn[nH]c3)ccc2NC(=O)OCc2ccccc2)C1` belongs “inactive”; to `Cc1cc(C(=O)O)ccc1-c1ccc(/C=C2/NC(=O)NC2=O)o1`, “inactive”. For `O=C(NCc1ccccc1)N1CCN2C(=O)[C@@H]3CSCN3C(=O)[C@H]2C1`, the IC50 entry is “inactive”. For `CC1=C/C(=N\N=C2\NC(=O)C(CC(=O)Nc3ccc(C(=O)O)cc3)S2)CC(C)(C)C1` (centres undefined), the IC50 was 334 nM. Take `O=C(O)c1cc(N=Cc2ccco2)ccc1O`: the IC50 was 778 nM.

Turning to `O=C(c1ccc2nc(-c3ccco3)c(-c3ccco3)nc2c1)N1CCSCC1`, the IC50 was 222 nM. To `CCN1CCN(Cc2coc3ccccc3c2=O)CC1` belongs > 6480 nM (inactive); to `O=C(/C=C/c1ccco1)Nc1c[nH]c(=O)[nH]c1=O`, “inactive”. As for `COc1ccc(/C=C2\N=C(c3ccc4c(c3)OCO4)OC2=O)cc1Cl`, the half-inhibitory concentration (IC50) was 757 nM.

For the compound `CCN1CCc2c(sc(NC(=S)NC(=O)/C=C/c3ccco3)c2C(N)=O)C1`, the IC50 was 726 nM.

In the case of `CC(=O)NS(=O)(=O)c1ccc(NC(=O)c2ccc([N+](=O)[O-])o2)cc1`, the IC50 entry was “inactive”. Next, `Cc1cc(C)n2nc(N)c(N)c2n1`: > 11600 nM (inactive); `O=C(NC1CCCCC1)N1CCN2C(=O)[C@@H]3C[C@@H](O)CN3C(=O)[C@H]2C1`: “inactive”. To `CCOC(=O)C1C2NC(=S)N(c3cccc(Cl)c3)C1(C)Oc1c(OC)cccc12` (centres undefined) belongs > 5090 nM (inactive); to `CN1CC(=O)N2CCN(C(=O)NC3CCCCC3)C[C@@H]2C1=O`, “inactive”. Turning to `CC[C@H](C)[C@@H]1NC(=O)[C@H]2CN(C(=O)Nc3cccc(F)c3)CCN2C1=O`, the IC50 result is “inactive”.

As to `N#CC1=C(N)n2c(s/c(=C\c3ccco3)c2=O)=C(C#N)C1c1ccco1` (centres undefined), the IC50 was 3.85 nM.

As for `Cc1cccc(N2CCN(C(=O)/C=C\C(=O)O)CC2)c1C`, the IC50 result was “inactive”. On to `COCCNC(=O)COC(=O)c1cc(-c2ccco2)nc2ccccc12`, for which the IC50 entry is “inactive”. To `Nc1ccc(NCCO)c(N)c1` belongs “inactive”; to `C/C(N)=C(/C#N)C(=O)COC(=O)c1c2c(nc3ccccc13)/C(=C/c1ccco1)CC2`, 443 nM; to `CCOc1cccc(OCC)c2c(C)[n+](C)c(C)c1-2`, 58.2 nM.

As for `O=C(/C=C/c1ccco1)NCC(=O)N/N=C/c1ccc(C(=O)O)cc1`, the IC50 result was “inactive”. Next, `CCCCCCCCCCCCCCCC(=O)OC[C@H](O)[C@H]1OC(=O)C(=O)C1O` (some centres undefined): “inactive”. To `O=C1N[C@H](Cc2ccccc2)C(=O)N2CCN(C(=O)NC3CCCCC3)C[C@H]12` belongs 873 nM; to `Cn1cc(-c2nc(Nc3ccc(-n4cnc(N5CCOCC5)n4)cc3)ncc2Br)cn1`, “inactive”. Consider `COc1ccc(CN2CCN(Cc3ccccc3OC)CC2)cc1`, for which the IC50 was > 7330 nM (inactive). Next, `Cc1cc(CSC(=N)N)c(O)c(C)n1`: 533 nM; `O=C(NNC(=S)Nc1ccccc1)C(=O)NNC(=S)Nc1ccccc1`: “inactive”; `O=C(O)c1cccc(-n2cccc2/C=C\[N+](=O)[O-])c1`: 271 nM. Consider `C[C@H](O)[C@H]1NC(=O)[C@H]2CN(C(=O)NCc3ccccc3)CCN2C1=O`, for which the IC50 result was “inactive”.

Turning to `CC(C)[C@H]1NC(=O)[C@H]2CN(C(=O)NC3CCCCC3)CCN2C1=O`, the IC50 result is “inactive”. Next, `O=C(OC1CCCC1=O)c1ccc(S(=O)(=O)N2CCCCC2)cc1` (centres undefined): “inactive”. To `COc1cc(C)c2c(c1C=O)Oc1c(c(C)c(O)c3c1C(O)OC3=O)OC2=O` (centres undefined) belongs 468 nM; to `Cc1cccc(OCC(=O)N2CCN(Cc3cccc(Br)c3)CC2)c1`, > 6480 nM (inactive); to `O=C1O[C@H](C(O)CO)C(O)=C1O` (some centres undefined), “inactive”.

For `O=C1N[C@@H](COCc2ccccc2)C(=O)N2CCN(C(=O)NCc3ccccc3)C[C@H]12`, the IC50 result was “inactive”.

With `O=S(=O)(O)c1cc(S(=O)(=O)O)c2cc(O)c(S(=O)(=O)O)cc2c1`, the IC50 is 156 nM.

Consider `NS(=O)(=O)c1ccc(N=Cc2cc3c(cc2[N+](=O)[O-])OCO3)cc1`, for which the IC50 result is “inactive”. Next, `O=C(/C=C/c1ccco1)NC(=S)NNC(=O)c1ccccc1O`: > 2160 nM (inactive); `CC(O)(CNCCN1CCOCC1)COc1ccc(Cl)cc1` (centres undefined): “inactive”. Turning to `CCOC(=O)C1C2NC(=S)N(CC)C1(C)Oc1ccc(Cl)cc12` (centres undefined), the IC50 entry was “inactive”.

On to `CCN(CCN(C)C)Cc1ccc(F)cc1`, for which the IC50 was > 6480 nM (inactive). Next, `NC(=O)c1ccc(-c2cccs2)s1`: > 7320 nM (inactive); `O=C(NCC(c1cccs1)S(=O)(=O)c1ccc(Cl)cc1)c1ccco1` (centres undefined): “inactive”; `CC(C)NC(=O)c1cccc(NC(=O)Nc2ccc(-c3ncnc4[nH]cc(Cl)c34)cc2)c1`: 676 nM.

Turning to `CCOC1=CC(c2ccc3c(c2)OCO3)CC(=O)c2c(C)oc(C)c21` (centres undefined), the IC50 was > 6480 nM (inactive). `C/C=C\C1=C(C(=O)O)N2C(=O)C(NC(=O)C(N)c3ccc(O)cc3)C2SC1` (centres undefined): the IC50 was > 6480 nM (inactive). To `O=C(/C=C/c1ccco1)Nc1cccc(NC(=O)/C=C/c2ccco2)n1` belongs 10.4 nM; to `c1ccc2c(c1)OCC(c1nc3c(-c4ccncc4)cncc3[nH]1)O2` (centres undefined), > 2160 nM (inactive); to `O=C(NCc1ccccc1)N1CCN2C(=O)[C@@H]3CCCN3C(=O)[C@H]2C1`, “inactive”. Next, `CC(=O)NC1=NC(=O)/C(=C\c2ccc(Br)o2)S1`: 153 nM; `Brc1c(OCCN2CCNCC2)ccc2ccccc12`: “inactive”.

With `O=C(/C=C/c1ccco1)NC(=S)Nc1ccc(Cl)c(C(=O)O)c1`, the IC50 was 527 nM. To `O=C1N[C@@H](Cc2ccccc2)C(=O)N2CCN(C(=O)NC3CCCCC3)C[C@H]12` belongs “inactive”. Next, `O=P(O)(O)C(O)(CCNC(=S)Nc1ccccc1)P(=O)(O)O`: “inactive”.

In the case of `CC1=NC(=S)C2C(=O)O/C(=C/c3ccc(-c4cccc([N+](=O)[O-])c4)o3)C2=C1` (centres undefined), the IC50 entry is “inactive”. To `C/C(=N\NC(=O)Cc1cc(=O)[nH][nH]1)c1ccco1` belongs “inactive”; to `CCc1ccc(CN2CCN(Cc3cc(OC)c(O)c(OC)c3)CC2)cc1`, > 5790 nM (inactive). To `Cc1cc(C)nc(NS(=O)(=O)c2ccc(N3C(=O)C=CC3=O)cc2)n1` belongs > 2160 nM (inactive); to `CN(CCC#N)C(=O)COC(=O)c1c2c(nc3ccccc13)/C(=C/c1ccco1)CC2`, “inactive”. To `O=C(O)C1CC=CCC1C(=O)Nc1nncs1` (centres undefined) belongs “inactive”; to `OC[C@H]1OC([S-])[C@H](O)[C@@H](O)[C@@H]1O.[Au+]` (some centres undefined), “inactive”; to `O=C(Nc1ccc(N2CCOCC2)cc1)c1ccnc(Nc2ncccn2)c1`, “inactive”. With `N#CC(C#N)=C(N)/C(C#N)=C/c1ccc([N+](=O)[O-])o1`, the IC50 was 467 nM. Next, `Cc1ccc(N2C(=O)C3C(C2=O)C2(CO)C=CC3(C)O2)cc1[N+](=O)[O-]` (centres undefined): > 6480 nM (inactive); `Cc1ncn(-c2ccc(N(C)c3ncc4cccc(-c5ccn[nH]5)c4n3)cc2)n1`: > 6480 nM (inactive). Next, `COc1ccc2nc(-c3ccco3)c(-c3ccco3)nc2c1`: “inactive”; `CCC12c3ccccc3C(c3ccccc31)C1C(=O)NC(=O)C12` (centres undefined): > 2160 nM (inactive). To `COc1cc(C(=O)N2CCN(Cc3ccccc3C)CC2)cc(OC)c1OC` belongs > 5620 nM (inactive). Turning to `CCOC(=O)C1C2NC(=S)N(c3ccc(C)cc3)C1(C)Oc1c(OCC)cccc12` (centres undefined), the IC50 is > 4890 nM (inactive). To `O=c1[nH]cc(N=Cc2ccc([N+](=O)[O-])o2)c(=O)[nH]1` belongs 7 nM. Next, `N#Cc1c(SCC(=O)O)nc2c(c1-c1ccco1)CCC2`: 194 nM; `CN1CCN(C(=O)c2ccc(-c3nc(Nc4ccccc4)c4ncn(C5CCCCC5)c4n3)cc2)CC1`: > 7630 nM (inactive); `O=C(Nc1ccc(N2CCOCC2)cc1)c1cccc(Nc2ccncn2)n1`: “inactive”. In the case of `O=C(NCCO)c1cccc(-c2cccs2)c1`, the IC50 result was “inactive”. Next, `COc1ccc2c(c1)CC(C(=O)Nc1ccc(-c3cn[nH]c3)cc1OCC(N)=O)CO2` (centres undefined): “inactive”; `O=C(O)COc1ccc(-n2cccc2)cc1`: 324 nM. To `CCCCOc1ccc(C(=O)N/C(=C/c2ccco2)C(=O)O)cc1` belongs “inactive”; to `CCC(C)C(=O)NCc1nnc2n1CCN(C/C=C/c1ccco1)CC2` (centres undefined), 570 nM; to `O=C(O)CSc1cc(Cl)c2nonc2c1[N+](=O)[O-]`, “inactive”.

With `c1ccc(-c2ccc(OCCCCn3cncn3)cc2)cc1`, the IC50 entry is “inactive”. Next, `O=C(Cc1cccs1)N/N=C\C=C\c1ccco1`: 85.5 nM. To `NC(=O)Cn1cnc2sc3c(c2c1=O)CCC3` belongs “inactive”; to `O=C1N[C@H](Cc2ccccc2)C(=O)N2CCN(C(=O)NCc3ccccc3)C[C@H]12`, “inactive”; to `Nc1ccc(O)c(C(=O)O)c1`, 18.7 nM. To `O=C(/C=C/c1ccco1)Nc1nnc(-c2ccco2)s1` belongs > 6480 nM (inactive); to `c1coc(CNc2ccc3ncc(-c4ccco4)n3n2)c1`, “inactive”; to `O=C(c1ccc2c(c1)C(=O)N(Cc1cccnc1)C2=O)c1ccc2c(c1)C(=O)N(Cc1cccnc1)C2=O`, “inactive”. For the compound `CC(=C/C(=O)O)/C=C/c1ccoc1`, the IC50 was 159 nM. Next, `CC(=O)NCC(c1cccs1)S(=O)(=O)c1ccc(C)cc1` (centres undefined): “inactive”.

The term IC50 denotes the concentration that inhibits the measured activity by half.
